In US10940139B2, “Compounds that interact with the Ras superfamily for the treatment of cancers, inflammatory diseases, rasopathies, and fibrotic disease” (Shy Therapeutics LLC, priority 2017, dated 2021):

Tested on: MAPK phosphorylation in PANC-1 pancreatic cancer cell line
Assay: MAPK cell-based phosphorylation assay (cell-direct ELISA, EGF stimulation)
Conditions: Homo sapiens, * = tested at 10 μM
Outline: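 Cell-direct ELISA measured phospho-MAPK, with fluorescence read at 595 nm from AmpliFlu Red. Before fixation, PANC-1 cells starved overnight received 6 hours of compound (30 μM single dose or serial dilutions, 0.3% DMSO, 37° C), followed by 1.5 ng/ml EGF for 15 min.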

`CC(C)(O)c1ccc(-c2csc3c(O)nc(-c4ccccn4)nc23)c(F)c1` [drawing 1219] and `COc1ccc(-c2csc3c(O)nc(-c4ccccn4)nc23)c(C)c1` [drawing 1220] fall in the same range of inhibition at 10 µM: 76 to 100% for the first, 76 to 100% for the second.

First: Oc1nc(-c2ccccn2)nc2c(-c3ccccc3C(F)F)csc12 [drawing 1221]
Second: Oc1nc(-c2ccccn2)nc2c(-c3cncc(C(F)F)c3)csc12 [drawing 1268]
The inhibition at 10 µM of the first is higher: 76 to 100% for the first, 0% for the second.

Compared with `COc1cc(-c2csc3c(O)nc(-c4ccccn4)nc23)cnc1C(F)(F)F` [drawing 1222], `Oc1nc(-c2ccccn2)nc2c(-c3cc(F)cc(F)c3)csc12` [drawing 1237] is higher in inhibition at 10 µM: 1 to 25% for the first, 76 to 100% for the second.

First: OCC1(c2ccc(-c3csc4c(O)nc(-c5ccccn5)nc34)cc2)CC1 [drawing 1223]
Second: Oc1nc(-c2ccccn2)nc2c(-c3ccc(OC4CCCCC4)cc3)csc12 [drawing 1224]
The inhibition at 10 µM of the first is higher: 51 to 75% for the first, 25 to 50% for the second.

Compared with `Cc1cnccc1-c1csc2c(O)nc(-c3ccccn3)nc12` [drawing 1225], `Cc1c(-c2csc3c(O)nc(-c4ccccn4)nc23)cnn1C` [drawing 1266] is lower in inhibition at 10 µM: 1 to 25% for the first, 0% for the second.

`O=C(CCn1ccnc1)Nc1nc(-c2ccccn2)nc2sccc12` [drawing 1226] and `O=C(CCc1cncnc1)Nc1nc(-c2ccccn2)nc2sccc12` [drawing 1228] fall in the same range of inhibition at 10 µM: 1 to 25% for the first, 1 to 25% for the second.

`O=C(CCc1nn[nH]n1)Nc1nc(-c2ccccn2)nc2sccc12` [drawing 1227] and `COC(=O)c1csc2nc(-c3ccccn3)nc(N)c12` [drawing 1232] fall in the same range of inhibition at 10 µM: 25 to 50% for the first, 25 to 50% for the second.

Compared with `Nc1nc(-c2ccccn2)nc2c(Br)csc12` [drawing 1229], `Nc1nc(-c2ccccn2)nc2scc(Br)c12` [drawing 1231] is lower in inhibition at 10 µM: 25 to 50% for the first, 1 to 25% for the second.

First: Cc1sc2c(N)nc(-c3ccccn3)nc2c1Br [drawing 1230]
Second: Cc1sc2c(O)nc(-c3ccccn3)nc2c1Br [drawing 1282]
The inhibition at 10 µM of the first is lower: 1 to 25% for the first, 76 to 100% for the second.

First: COc1nccc(CCNC(=O)c2csc3nc(-c4ccccn4)nc(N4CCOCC4)c23)n1 [drawing 1234]
Second: O=C(NCCc1ccnc(O)n1)c1csc2nc(-c3ccccn3)nc(N3CCOCC3)c12 [drawing 1235]
The inhibition at 10 µM of the first is higher: 25 to 50% for the first, 1 to 25% for the second.

Compared with `CN1CCN(c2nc(-c3ccccn3)nc3scc(C(=O)NCCc4cnc(O)nc4)c23)CC1` [drawing 1236], `O=C(NCCc1ccncn1)c1csc2nc(-c3ccccn3)nc(N3CCOCC3)c12` [drawing 1261] is lower in inhibition at 10 µM: 25 to 50% for the first, 0% for the second.

First: Oc1nc(-c2ccccn2)nc2c(-c3ccc4c(c3)CCCO4)csc12 [drawing 1238]
Second: N#Cc1cccc(-c2csc3c(O)nc(-c4ccccn4)nc23)c1 [drawing 1264]
The inhibition at 10 µM of the first is higher: 76 to 100% for the first, 0% for the second.

First: CCn1nc(C)cc1-c1csc2c(O)nc(-c3ccccn3)nc12 [drawing 1239]
Second: Cc1nn(C(C)C)cc1-c1csc2c(O)nc(-c3ccccn3)nc12 [drawing 1267]
The inhibition at 10 µM of the first is higher: 1 to 25% for the first, 0% for the second.

First: Oc1nc(-c2ccccn2)nc2c(-c3ccnn3-c3ccccn3)csc12 [drawing 1240]
Second: Oc1cccc(-c2csc3c(O)nc(-c4ccccn4)nc23)n1 [drawing 1259]
The inhibition at 10 µM of the first is lower: 1 to 25% for the first, 51 to 75% for the second.

`Cc1sc2c(O)nc(-c3ccccn3)nc2c1-c1ccccc1` [drawing 1241] and `Cc1sc2c(O)nc(-c3ccccn3)nc2c1-c1ccccc1Cl` [drawing 1275] fall in the same range of inhibition at 10 µM: 76 to 100% for the first, 76 to 100% for the second.

First: Nc1nc(-c2ccccn2)nc2scc(C(=O)O)c12 [drawing 1242]
Second: COc1cnc(CNC(=O)c2csc3nc(-c4ccccn4)nc(N)c23)[nH]c1=O [drawing 1277]
The inhibition at 10 µM of the first is lower: 1 to 25% for the first, 25 to 50% for the second.

`COC(=O)c1cc2nc(-c3ccccn3)nc(O)c2s1` [drawing 1243] and `Cc1cc2nc(-c3ccccn3)nc(O)c2s1` [drawing 1246] fall in the same range of inhibition at 10 µM: 25 to 50% for the first, 25 to 50% for the second.

`COc1nc(-c2ccccn2)nc2c(C3CCCC3)csc12` [drawing 1244] and `COc1nc(-c2ccccn2)nc2c(C3CCCCC3)csc12` [drawing 1251] fall in the same range of inhibition at 10 µM: 1 to 25% for the first, 1 to 25% for the second.

First: CCC(C)c1csc2c(OC)nc(-c3ccccn3)nc12 (centres unmarked) [drawing 1245]
Second: CC(C)Cc1csc2c(O)nc(-c3ccccn3)nc12 [drawing 1255]
The inhibition at 10 µM of the first is lower: 25 to 50% for the first, 76 to 100% for the second.

Compared with `COC(=O)c1c(C)sc2c(O)nc(-c3ccccn3)nc12` [drawing 1247], `COC(=O)c1c(C)sc2c(N)nc(-c3ccccn3)nc12` [drawing 1260] is higher in inhibition at 10 µM: 1 to 25% for the first, 25 to 50% for the second.

First: Cc1c(Br)sc2c(O)nc(-c3ccccn3)nc12 [drawing 1248]
Second: Cc1c(C(=O)O)sc2c(O)nc(-c3ccccn3)nc12 [drawing 1249]
The inhibition at 10 µM of the first is lower: 1 to 25% for the first, 25 to 50% for the second.

Compared with `Oc1nc(-c2ccccn2)nc2c(C3CCC3)csc12` [drawing 1250], `Oc1nc(-c2ccccn2)nc2c(C3CC3)csc12` [drawing 1278] is lower in inhibition at 10 µM: 76 to 100% for the first, 51 to 75% for the second.

First: CC(C)Oc1cnc(-c2ccccn2)nc1O [drawing 1252]
Second: COc1cnc(-c2cn(C)cn2)nc1O [drawing 1257]
The inhibition at 10 µM of the first is lower: 1 to 25% for the first, 51 to 75% for the second.

First: CN(C)CCOc1cccc(-c2csc3c(O)nc(-c4ccccn4)nc23)c1 [drawing 1253]
Second: Nc1cccc(-c2csc3c(O)nc(-c4ccccn4)nc23)n1 [drawing 1274]
The inhibition at 10 µM of the first is higher: 76 to 100% for the first, 51 to 75% for the second.

First: Oc1nc(-c2ccccn2)nc2c(C3CCCC3)csc12 [drawing 1256]
Second: Oc1nc(-c2ccccn2)nc2c(C3CCCCC3)csc12 [drawing 1272]
The inhibition at 10 µM of the first is higher: 76 to 100% for the first, 25 to 50% for the second.

First: Cc1sc2c(O)nc(-c3ccccn3)nc2c1-c1ccncc1 [drawing 1258]
Second: Oc1nc(-c2ccccn2)nc2c(-c3cncnc3)csc12 [drawing 1265]
The inhibition at 10 µM of the first is higher: 51 to 75% for the first, 0% for the second.

`CC(C)c1nn(C)cc1-c1csc2c(O)nc(-c3ccccn3)nc12` [drawing 1262] and `Oc1nc(-c2ccccn2)nc2c(-c3cc(CN4CCCC4)ccc3F)csc12` [drawing 1263] are the same in inhibition at 10 µM: 0% for the first, 0% for the second.

`Cc1sc2c(O)nc(-c3ccccn3)nc2c1C(=O)N1CCN(c2ccccc2)CC1` [drawing 1269] and `Cc1sc2c(O)nc(-c3ccccn3)nc2c1C(=O)N1CCN(c2ccccc2)CC1C` (centres unmarked) [drawing 1270] fall in the same range of inhibition at 10 µM: 1 to 25% for the first, 1 to 25% for the second.

First: Cc1sc2c(O)nc(-c3ccccn3)nc2c1C(=O)N1CCN(Cc2cccc(O)c2)CC1 [drawing 1271]
Second: O=C(c1csc2c(O)nc(-c3ccccn3)nc12)N1CCNC(c2ccc(Cl)cc2)C1 (centres unmarked) [drawing 1285]
The inhibition at 10 µM of the first is higher: 25 to 50% for the first, 0% for the second.

Compared with `COc1cnc(-c2nccn2C)nc1O` [drawing 1273], `COc1cnc(-c2cnc[nH]2)nc1O` [drawing 1276] is lower in inhibition at 10 µM: 25 to 50% for the first, 1 to 25% for the second.

`Oc1nc(-c2ccccn2)nc2c(CC3CNC3)csc12` [drawing 1279] and `COc1cnc(CNC(=O)c2csc3c(O)nc(-c4ccccn4)nc23)[nH]c1=O` [drawing 1280] are the same in inhibition at 10 µM: 0% for the first, 0% for the second.

First: COc1cnc(CNC(=O)c2cc3nc(-c4ccccn4)nc(O)c3s2)[nH]c1=O [drawing 1281]
Second: COc1cnc(CNC(=O)c2c(C)sc3c(O)nc(-c4ccccn4)nc23)[nH]c1=O [drawing 1283]
The inhibition at 10 µM of the first is higher: 51 to 75% for the first, 0% for the second.

For `COc1cnc(CNC(=O)c2sc3c(O)nc(-c4ccccn4)nc3c2C)[nH]c1=O` [drawing 1284], the inhibition at 10 µM was 0%.
